Measured values: ChEMBL document CHEMBL5154761, “Design, synthesis, and evaluation of 9-(pyrimidin-2-yl)-9H-carbazole derivatives disrupting mitochondrial homeostasis in human lung adenocarcinoma” (Eur J Med Chem, 2022)
The source made the active and inactive calls. No cut-off for these calls is given here.

Tests used:
[1] = tested on: A549; assay: Cytotoxicity against human A549 cells assessed as cell growth inhibition incubated for 48 hrs by MTT assay; format: functional, cell-based; conditions: A549, 48 h
[2] = tested on: A549; assay: Cytotoxicity against human A549 cells assessed as cell growth inhibition at 10 uM incubated for 48 hrs by MTT assay relative to control; format: functional
[3] = tested on: A549; assay: Induction of cell cycle arrest in human A549 cells assessed as accumulation at G2/M phase at 10 uM incubated for 48 hrs by PI staining based flow cytometry analysis; format: functional
[4] = tested on: A549; assay: Induction of cell cycle arrest in human A549 cells assessed as accumulation at G2/M phase incubated for 48 hrs by PI staining based flow cytometry analysis; format: functional; conditions: dose <= 1.0 µM, DDE = dose-dependent effect
[5] = Antiproliferative activity against rat NRK-52E cells assessed as cell growth inhibition incubated for 48 hrs by MTT assay; format: toxicity, cell-based
[6] = tested on: A549; assay: Induction of cell cycle arrest in human A549 cells assessed as accumulation at Go/G1 phase at 0.5 uM incubated for 48 hrs by PI staining based flow cytometry analysis (reference value: 62.45); format: functional
[7] = tested on: A549; assay: Induction of cell cycle arrest in human A549 cells assessed as accumulation at Go/G1 phase at 1 uM incubated for 48 hrs by PI staining based flow cytometry analysis (reference value: 62.45); format: functional
[8] = tested on: A549; assay: Induction of cell cycle arrest in human A549 cells assessed as accumulation at S phase at 0.5 uM incubated for 48 hrs by PI staining based flow cytometry analysis (reference value: 12.85%); format: functional
[9] = tested on: A549; assay: Induction of cell cycle arrest in human A549 cells assessed as accumulation at S phase at 1 uM incubated for 48 hrs by PI staining based flow cytometry analysis (reference value: 12.85%); format: functional
[10] = tested on: A549; assay: Induction of cell cycle arrest in human A549 cells assessed as accumulation at G2/M phase at 0.5 uM incubated for 48 hrs by PI staining based flow cytometry analysis (reference value: 18.14); format: functional
[11] = tested on: A549; assay: Induction of cell cycle arrest in human A549 cells assessed as accumulation at G2/M phase at 1 uM incubated for 48 hrs by PI staining based flow cytometry analysis (reference value: 18.14); format: functional
[12] = tested on: A549; assay: Induction of cell cycle arrest in human A549 cells assessed as increase in cyclin B1 expression upto 1 uM incubated for 48 hrs by Western blot analysis; format: functional, cell-based
[13] = tested on: A549; assay: Induction of cell cycle arrest in human A549 cells assessed as decrease in cyclin D1 expression upto 1 uM incubated for 48 hrs by Western blot analysis; format: functional, cell-based
[14] = tested on: A549; assay: Induction of DNA damage in human A549 cells assessed as upregulation of gamma H2AX incubated for 48 hrs by Western blot analysis; format: functional, cell-based; conditions: dose <= 1.0 µM, DDE = dose-dependent effect
[15] = tested on: A549; assay: Induction of apoptosis in human A549 cells assessed as viable cells at 0.5 uM incubated for 48 hrs by Annexin V-FITC/propidium iodide staining based flow cytometry analysis (reference value: 97.3%); format: functional; conditions: read-out: Activity
[16] = tested on: A549; assay: Induction of apoptosis in human A549 cells assessed as viable cells at 1 uM incubated for 48 hrs by Annexin V-FITC/propidium iodide staining based flow cytometry analysis (reference value: 97.3%); format: functional; conditions: read-out: Activity
[17] = tested on: A549; assay: Induction of apoptosis in human A549 cells assessed as early apoptotic cells at 0.5 uM incubated for 48 hrs by Annexin V-FITC/propidium iodide staining based flow cytometry analysis (reference value: 1.46%); format: functional
[18] = tested on: A549; assay: Induction of apoptosis in human A549 cells assessed as early apoptotic cells at 1 uM incubated for 48 hrs by Annexin V-FITC/propidium iodide staining based flow cytometry analysis (reference value: 1.46%); format: functional
[19] = tested on: A549; assay: Induction of apoptosis in human A549 cells assessed as late apoptotic cells at 0.5 uM incubated for 48 hrs by Annexin V-FITC/propidium iodide staining based flow cytometry analysis (reference value: 1.00%); format: functional
[20] = tested on: A549; assay: Induction of apoptosis in human A549 cells assessed as late apoptotic cells at 1 uM incubated for 48 hrs by Annexin V-FITC/propidium iodide staining based flow cytometry analysis (reference value: 1.00%); format: functional
[21] = tested on: A549; assay: Induction of apoptosis in human A549 cells assessed as necrotic cells at 0.5 uM incubated for 48 hrs by Annexin V-FITC/propidium iodide staining based flow cytometry analysis (reference value: 0.30%); format: functional
[22] = tested on: A549; assay: Induction of apoptosis in human A549 cells assessed as necrotic cells at 1 uM incubated for 48 hrs by Annexin V-FITC/propidium iodide staining based flow cytometry analysis (reference value: 0.30%); format: functional
[23] = tested on: A549; assay: Induction of apoptosis in human A549 cells assessed as increase in caspase 3 protein expression at 0.5 to 1 uM measured after 48 hrs by Western blot assay; format: functional, cell-based; conditions: dose 0.5-1 µM
[24] = tested on: A549; assay: Induction of apoptosis in human A549 cells assessed as increase in cleaved caspase 3 protein expression at 0.5 to 1 uM measured after 48 hrs by Western blot assay; format: functional, cell-based; conditions: dose 0.5-1 µM
[25] = tested on: A549; assay: Induction of apoptosis in human A549 cells assessed as increase in PARP protein expression at 0.5 to 1 uM measured after 48 hrs by Western blot assay; format: functional, cell-based; conditions: dose 0.5-1 µM
[26] = tested on: A549; assay: Induction of apoptosis in human A549 cells assessed as increase in cleaved PARP protein expression at 0.5 to 1 uM measured after 48 hrs by Western blot assay; format: functional, cell-based; conditions: dose 0.5-1 µM
[27] = tested on: A549; assay: Induction of apoptosis in human A549 cells assessed as upregulation of caspase 9 protein expression at 0.5 to 1 uM measured after 48 hrs by Western blot assay; format: functional, cell-based; conditions: dose 0.5-1 µM
[28] = tested on: A549; assay: Induction of apoptosis in human A549 cells assessed as increase in cleaved caspase 7 protein expression at 0.5 to 1 uM measured after 48 hrs by Western blot assay; format: functional, cell-based; conditions: dose 0.5-1 µM
[29] = tested on: A549; assay: Induction of apoptosis in human A549 cells assessed as increase in Bax protein expression at 0.5 to 1 uM measured after 48 hrs by Western blot assay; format: functional, cell-based; conditions: dose 0.5-1 µM
[30] = tested on: A549; assay: Induction of apoptosis in human A549 cells assessed as increase in P53 protein expression at 0.5 to 1 uM measured after 48 hrs by Western blot assay; format: functional, cell-based; conditions: dose 0.5-1 µM
[31] = tested on: A549; assay: Induction of apoptosis in human A549 cells assessed as decrease in caspase 7 protein expression at 0.5 to 1 uM measured after 48 hrs by Western blot assay; format: functional, cell-based; conditions: dose 0.5-1 µM
[32] = tested on: A549; assay: Induction of apoptosis in human A549 cells assessed as decrease in Bcl-2 protein expression at 0.5 to 1 uM measured after 48 hrs by Western blot assay; format: functional, cell-based; conditions: dose 0.5-1 µM
[33] = tested on: A549; assay: Antiproliferative activity against human A549 cells at >1.35 uM incubated for 48 hrs by RTCA analysis; format: functional, cell-based
[34] = tested on: NRK-52E; assay: Antiproliferative activity against rat NRK-52E cells at upto 10.75 uM incubated for 48 hrs by RTCA analysis; format: toxicity, cell-based
[35] = tested on: A549; assay: Inhibition of colony formation in human A549 cells at 2 uM incubated for 48 hrs followed by culture medium replacement for every 72 hrs and measured after 14 days by crystal violet staining based analysis relative to control; format: functional; parameters: scale not given: the % may be the effect or the level left; conditions: time 14 day
[36] = tested on: A549; assay: Antitumor activity against human A549 cells xenografted in BALB/c nude mouse assessed as reduction in tumor size at 2 mg/kg, ip administered once daily for 14 days and measured every day (reference value: 2100 mm3); format: functional; conditions: time 14 day
[37] = Toxicity in BALB/c mouse xenografted with human A549 cells assessed as effect on body weight at 0.4 to 2 mg/kg, ip administered once daily for 14 days and measured every day; format: organism-based; conditions: in vivo, 336 h, dose 0.4-2 mg/kg, time 14 day
[38] = tested on: A549; assay: Antitumor activity against human A549 cells xenografted in BALB/c nude mouse assessed as necrotic cells at 2 mg/kg, ip administered once daily for 14 days by H and E staining; format: functional, organism-based; conditions: time 14.0 day
[39] = tested on: A549; assay: Inhibition of mitochondrial respiration in human A549 cells assessed as decrease in basal respiration at 2 uM in presence of oligomycin/FCCP/antimycin A /rotenone measured upto 75 mins by seahorse XFe24 flux analyzer; format: functional, cell-based
[40] = tested on: A549; assay: Inhibition of mitochondrial respiration in human A549 cells assessed as decrease in proton leak at 2 uM in presence of oligomycin/FCCP/antimycin A/rotenone measured upto 75 mins by seahorse XFe24 flux analyzer; format: functional, cell-based
[41] = tested on: A549; assay: Inhibition of mitochondrial respiration in human A549 cells assessed as decrease in maximal respiration at 2 uM in presence of oligomycin/FCCP/antimycin A /rotenone measured upto 75 mins by seahorse XFe24 flux analyzer; format: functional, cell-based
[42] = tested on: A549; assay: Inhibition of mitochondrial respiration in human A549 cells assessed as decrease in spare capacity at 2 uM in presence of oligomycin/FCCP/antimycin A /rotenone measured upto 75 mins by seahorse XFe24 flux analyzer; format: functional, cell-based
[43] = tested on: A549; assay: Inhibition of mitochondrial respiration in human A549 cells assessed as reduction in respiratory control ratio by seahorse XFe24 flux analyzer; format: functional, cell-based; conditions: dose 0.5-2 µM, DDE = dose-dependent effect
[44] = tested on: A549; assay: Inhibition of mitochondrial membrane potential in human A549 cells by JC-1 staining based confocal microscopy; format: functional, cell-based; conditions: dose 1.0 µM, DDE = dose-dependent effect
[45] = tested on: A549; assay: Inhibition of mitochondrial membrane potential in human A549 cells by JC-1 staining based high-content screening method; format: functional, cell-based; conditions: dose 0.5-2 µM, DDE = dose-dependent effect
[46] = tested on: A549; assay: Induction of morphological changes in human A549 cells assessed as swollen microstructure of mitochondria by transmission electron microscopy; format: functional, cell-based
[47] = tested on: A549; assay: Induction of morphological changes in human A549 cells assessed as vacuolated microstructure of mitochondria by transmission electron microscopy; format: functional, cell-based
[48] = tested on: A549; assay: Induction of apoptosis in human A549 cells assessed as rate of apoptotic cells at 0.5 to 1 uM incubated for 48 hrs by Annexin V-FITC/propidium iodide staining based flow cytometry analysis (reference value: 2.7 %); format: functional; conditions: dose 0.5-1 µM
[49] = tested on: A549; assay: Inhibition of colony formation in human A549 cells incubated for 48 hrs followed by culture medium replacement for every 72 hrs and measured after 7 days by crystal violet staining based analysis; format: functional, cell-based; conditions: dose 1-2 µM, time 7.0 day, DDE = dose-dependent effect
[50] = tested on: A549; assay: Induction of mitochondrial membrane potential loss in human A549 cells assessed as reduction in ATP levels at 1 to 2 uM incubated for 12 hrs in presence of oligomycin/FCCP/antimycin A /rotenone by seahorse XFe24 flux analyzer; format: functional, cell-based; conditions: dose 1-2 µM

For O=C(c1ccc2c(c1)OCO2)c1cccc2c3ccccc3n(-c3ncccn3)c12, the IC50 [1] was 0.82 µM, the inhibition at 10 µM [2] was 78.6% and the Activity [3] was “Active”. For the same compound, the Activity [4] was “Dde”, the IC50 at 48 h [5] was 1250 nM and the Activity [6] was 59.84%. For the same compound, the Activity [7] was 29.76%, the Activity [8] was 13.84% and the Activity [9] was 14.11%. The Activity [10] was 23.16%, the Activity [11] was 65.62% and the Activity [12] was “Active”. For the same compound, the Activity [13] was “Active”, the Activity [14] was “Dde” and the viability at 0.5 µM [15] was 93.4%. For the same compound, the viability at 1 µM [16] was 78.9%, the Activity [17] was 2.71% and the Activity [18] was 12.3%. It also gave an Activity [19] of 2.17%, an Activity [20] of 6.98% and an Activity [21] of 1.74%. For the same compound, the Activity [22] was 1.8%, the Activity [23] was “Active” and the Activity [24] was “Active”. For the same compound, the Activity [25] was “Active”, the Activity [26] was “Active” and the Activity [27] was “Active”. The Activity [28] was “Active”, the Activity [29] was “Active” and the Activity [30] was “Active”. For the same compound, the Activity [31] was “Active”, the Activity [32] was “Active” and the Activity [33] was “Active”. The Activity [34] was “Non-Toxic”, the Activity [35] was 69% and the Activity [36] was 1255 mm3. The Activity [37] was “Non-Toxic”, the Activity [38] was “Active” and the inhibition [39] was “Active”. For the same compound, the inhibition [40] was “Active”, the inhibition [41] was “Active” and the inhibition [42] was “Active”. For the same compound, the inhibition [43] was “Dde”, the inhibition [44] was “Dde” and the inhibition [45] was “Dde”. The Activity [46] was “Active”, the Activity [47] was “Active” and the Activity [48] was 21.1%. The inhibition [49] was “Dde” and the Activity [50] was “Active”.
In the case of O=C(c1ccc(OCc2ccccc2)cc1)c1cccc2c3ccccc3n(-c3ncccn3)c12, the IC50 [1] is reported as 2.15 µM and the inhibition at 10 µM [2] is reported as under 50%.
For O=C(c1ccc(I)cc1)c1cccc2c3ccccc3n(-c3ncccn3)c12, the IC50 [1] was 12.5 µM and the Activity [3] was “Active”.
With O=C(c1ccc(O)c(O)c1)c1cccc2c3ccccc3n(-c3ncccn3)c12 the IC50 [1] was 8.86 µM and the inhibition at 10 µM [2] was 50%.
For CC(C)(C)OC(=O)c1cccc2c3cc(Cl)ccc3n(-c3ncccn3)c12, the Activity [3] was “Active”.
